# Reference: ChEMBL document CHEMBL5365467 (J Med Chem, 2023)
# pIC50: −log10 of the molar value.
# Tests used:
# in vivo [1] = conditions: Sprague-Dawley, rat, iv, 2 mg/kg
# [2] = Metabolic stability in rat liver microsome assessed as parent compound remaining measured at 120 mins in presence of NADPH by LC-MS/MS analysis; assay type: ADME; conditions: liver microsomes, read-out: Stability
# [3] = Metabolic stability in non human primate plasma assessed as parent compound remaining measured after 120 mins by LC-MS/MS analysis; assay type: ADME, cell-free; conditions: primates, read-out: Stability
# [4] = Metabolic stability in dog plasma assessed as parent compound remaining measured after 120 mins by LC-MS/MS analysis; assay type: ADME, cell-free, Canis lupus familiaris; conditions: read-out: Stability
# [5] = target: Protein cereblon/Androgen receptor (Homo sapiens, UniProt P10275+Q96SW2); experiment: PROTAC activity at AR/CRBN in AR-positive human VCaP cells assessed as induction of androgen receptor degradation measured at 24 hrs; assay type: cell-based; conditions: read-out: DC50
# Sequence of Protein cereblon/Androgen receptor (Homo sapiens, UniProt P10275+Q96SW2) (P10275 whole entry): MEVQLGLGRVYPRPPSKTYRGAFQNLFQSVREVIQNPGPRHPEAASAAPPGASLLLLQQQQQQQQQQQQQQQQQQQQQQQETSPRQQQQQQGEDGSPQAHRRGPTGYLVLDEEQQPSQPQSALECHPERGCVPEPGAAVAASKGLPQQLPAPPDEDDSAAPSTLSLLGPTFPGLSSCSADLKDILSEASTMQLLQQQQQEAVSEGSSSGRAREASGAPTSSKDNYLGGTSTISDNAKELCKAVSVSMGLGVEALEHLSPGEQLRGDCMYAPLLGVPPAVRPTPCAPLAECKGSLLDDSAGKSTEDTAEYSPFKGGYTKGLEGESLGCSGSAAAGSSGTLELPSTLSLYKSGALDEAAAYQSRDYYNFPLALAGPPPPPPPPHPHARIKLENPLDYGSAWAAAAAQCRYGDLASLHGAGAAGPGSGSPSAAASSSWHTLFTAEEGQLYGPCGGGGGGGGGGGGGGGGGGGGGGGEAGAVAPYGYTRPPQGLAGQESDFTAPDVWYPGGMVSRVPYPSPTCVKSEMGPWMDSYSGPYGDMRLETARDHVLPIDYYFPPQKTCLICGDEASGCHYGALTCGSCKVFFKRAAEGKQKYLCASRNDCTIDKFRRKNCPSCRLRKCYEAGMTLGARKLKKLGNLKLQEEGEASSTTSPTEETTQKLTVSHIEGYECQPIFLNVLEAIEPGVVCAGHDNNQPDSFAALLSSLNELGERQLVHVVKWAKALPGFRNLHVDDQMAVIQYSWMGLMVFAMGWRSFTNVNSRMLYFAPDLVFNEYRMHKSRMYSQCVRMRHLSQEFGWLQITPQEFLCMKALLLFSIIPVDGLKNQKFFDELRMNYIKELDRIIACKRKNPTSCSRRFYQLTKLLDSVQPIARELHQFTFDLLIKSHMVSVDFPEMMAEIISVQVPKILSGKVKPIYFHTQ
# Sequence of Protein cereblon/Androgen receptor (Homo sapiens, UniProt P10275+Q96SW2) (Q96SW2 whole entry): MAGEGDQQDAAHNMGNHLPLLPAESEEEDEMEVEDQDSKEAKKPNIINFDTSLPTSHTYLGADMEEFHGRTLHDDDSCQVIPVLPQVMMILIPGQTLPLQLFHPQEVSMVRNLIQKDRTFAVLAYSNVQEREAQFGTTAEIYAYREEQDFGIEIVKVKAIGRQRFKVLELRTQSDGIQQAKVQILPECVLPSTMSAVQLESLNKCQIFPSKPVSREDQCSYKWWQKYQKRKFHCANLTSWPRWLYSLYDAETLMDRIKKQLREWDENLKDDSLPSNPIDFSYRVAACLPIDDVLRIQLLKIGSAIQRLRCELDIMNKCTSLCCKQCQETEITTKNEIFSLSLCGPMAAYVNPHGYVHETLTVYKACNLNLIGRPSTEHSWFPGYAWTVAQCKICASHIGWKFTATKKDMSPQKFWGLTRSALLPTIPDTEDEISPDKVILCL
# [6] = Volume of distribution at steady state in ICR mouse at 2 mg/kg, iv measured upto 24 hrs by LC-MS/MS analysis; assay type: ADME, organism-based; conditions: in vivo, read-out: Vdss
# [7] = AUC (0 to t) in ICR mouse at 2 mg/kg, iv measured upto 24 hrs by LC-MS/MS analysis; assay type: ADME, organism-based; set-up: dose 2 mg/kg, time < 24 hrs, route iv; conditions: in vivo
# [8] = Metabolic stability in non human primate liver microsome assessed as half life measured upto 45 mins in presence of NADPH by LC-MS/MS analysis; assay type: ADME; conditions: primates, liver microsomes
# [9] = AUC (0 to t) in ICR mouse at 5 mg/kg, po measured upto 24 hrs by LC-MS/MS analysis; assay type: ADME, organism-based; set-up: dose 5 mg/kg, time < 24 hrs, route po; conditions: in vivo
# [10] = Clearance in non human primate at 1 mg/kg, iv measured upto 24 hrs by LC-MS/MS analysis; assay type: ADME, organism-based; conditions: primates, in vivo
# [11] = Toxicity in CB17-SCID mouse assessed as body weight loss at 10 to 40 mg/kg, po administered for 21 days; assay type: organism-based; conditions: in vivo, 504 h, dose 10-40 mg/kg, time 21 day
# [12] = Tmax in Beagle dog at 10 mg/kg, po measured upto 24 hrs by LC-MS/MS analysis; assay type: ADME, organism-based, Canis lupus familiaris; conditions: in vivo
# [13] = Half life in non human primate assessed as half life at 1 mg/kg, iv measured upto 24 hrs by LC-MS/MS analysis; assay type: ADME, organism-based; conditions: primates, in vivo
# [14] = Volume of distribution at steady state in Beagle dog at 1 mg/kg, iv measured upto 24 hrs by LC-MS/MS analysis; assay type: ADME, organism-based, Canis lupus familiaris; conditions: in vivo, read-out: Vdss
# [15] = Metabolic stability in mouse plasma assessed as half life measured after 2 hrs by LC-MS/MS analysis; assay type: ADME, cell-free
# [16] = Metabolic stability in human plasma assessed as half life measured after 2 hrs by LC-MS/MS analysis; assay type: ADME, cell-free
# in vivo [17] = conditions: Sprague-Dawley, rat, po, 5 mg/kg
# LNCaP = experiment: Growth inhibition in human LNCaP cells assessed as reduction in cell viability
# [18] = Tmax in ICR mouse at 5 mg/kg, po measured upto 24 hrs by LC-MS/MS analysis; assay type: ADME, organism-based; conditions: in vivo
# [19] = Metabolic stability in human plasma assessed as parent compound remaining measured after 120 mins by LC-MS/MS analysis; assay type: ADME, cell-free; conditions: read-out: Stability
# [20] = target: Protein cereblon/Androgen receptor (Homo sapiens, UniProt P10275+Q96SW2, T878A); experiment: PROTAC activity at AR T878A mutant/CRBN in human LNCaP cells assessed as induction of androgen receptor degradation measured at 24 hrs by Western blot analysis; assay type: cell-based
# Sequence of Protein cereblon/Androgen receptor (Homo sapiens, UniProt P10275+Q96SW2, T878A) (P10275 whole entry T878A, stated change not applied): as the sequence (P10275 whole entry) above, with T878A counted along it
# Sequence of Protein cereblon/Androgen receptor (Homo sapiens, UniProt P10275+Q96SW2, T878A) (Q96SW2 whole entry, stated change not applied): as the sequence (Q96SW2 whole entry) above
# [21] = Half life in ICR mouse at 5 mg/kg, po measured upto 24 hrs by LC-MS/MS analysis; assay type: ADME, organism-based; conditions: in vivo
# [22] = Metabolic stability in non human primate hepatocyte assessed as half life measured upto 120 mins by LC-MS/MS analysis; assay type: ADME, cell-based; conditions: primates, hepatocytes
# [23] = Metabolic stability in rat plasma assessed as half life measured after 2 hrs by LC-MS/MS analysis; assay type: ADME, cell-free
# [24] = Half life in Beagle dog at 10 mg/kg, po measured upto 24 hrs by LC-MS/MS analysis; assay type: ADME, organism-based, Canis lupus familiaris; conditions: in vivo
# [25] = Tmax in Sprague-Dawley rat at 5 mg/kg, po measured upto 24 hrs by LC-MS/MS analysis; assay type: ADME, organism-based; conditions: in vivo
# [26] = AUC (0 to t) in non human primate at 2 mg/kg, po measured upto 24 hrs by LC-MS/MS analysis; assay type: ADME, organism-based; set-up: time < 24 hrs, dose 2 mg/kg, route po; conditions: primates, in vivo
# [27] = Half life in Sprague-Dawley rat at 5 mg/kg, po measured upto 24 hrs by LC-MS/MS analysis; conditions: in vivo
# VCaP = experiment: Antitumor activity against human VCaP cells xenografted in CB17-SCID mouse assessed as tumor growth inhibition at 40 mg/kg, po administered for 21 days; conditions: 504 h, read-out: TGI
# [28] = Clearance in Beagle dog at 1 mg/kg, iv measured upto 24 hrs by LC-MS/MS analysis; assay type: ADME, organism-based, Canis lupus familiaris; conditions: in vivo
# [29] = AUC (0 to t) in non human primate at 1 mg/kg, iv measured upto 24 hrs by LC-MS/MS analysis; assay type: ADME, organism-based; set-up: dose 1 mg/kg, time < 24 hrs, route iv; conditions: primates, in vivo
# [30] = Metabolic stability in mouse liver microsome assessed as parent compound remaining measured at 120 mins in presence of NADPH by LC-MS/MS analysis; assay type: ADME; conditions: liver microsomes, read-out: Stability
# [31] = Metabolic stability in rat hepatocyte assessed as half life measured upto 120 mins by LC-MS/MS analysis; assay type: ADME, cell-based; conditions: hepatocytes
# [32] = Metabolic stability in mouse hepatocyte assessed as half life measured upto 120 mins by LC-MS/MS analysis; assay type: ADME, cell-based; conditions: hepatocytes
# [33] = Volume of distribution at steady state in non human primate at 1 mg/kg, iv measured upto 24 hrs by LC-MS/MS analysis; assay type: ADME, organism-based; conditions: primates, in vivo, read-out: Vdss
# [34] = AUC (0 to t) in Beagle dog at 1 mg/kg, iv measured upto 24 hrs by LC-MS/MS analysis; assay type: ADME, organism-based, Canis lupus familiaris; set-up: dose 1 mg/kg, time < 24 hrs, route iv; conditions: in vivo
# [35] = Metabolic stability in non human primate plasma assessed as half life measured after 2 hrs by LC-MS/MS analysis; assay type: ADME, cell-free; conditions: primates
# [36] = Cmax in non human primate at 2 mg/kg, po measured upto 24 hrs by LC-MS/MS analysis; assay type: ADME, organism-based; set-up: dose 2 mg/kg, time < 24 hrs, route po; conditions: primates, in vivo
# [37] = AUC (0 to t) in Beagle dog at 10 mg/kg, po measured upto 24 hrs by LC-MS/MS analysis; assay type: ADME, organism-based, Canis lupus familiaris; set-up: time < 24 hrs, dose 10 mg/kg, route po; conditions: in vivo
# [38] = Half life in Sprague-Dawley rat at 2 mg/kg, iv measured upto 24 hrs by LC-MS/MS analysis; conditions: in vivo
# in vivo [39] = conditions: Sprague-Dawley, rat, po, 5 mg/kg; remark: listed apart in the source
# [40] = Half life in Beagle dog at 1 mg/kg, iv measured upto 24 hrs by LC-MS/MS analysis; assay type: ADME, organism-based, Canis lupus familiaris; conditions: in vivo
# [41] = Volume of distribution at steady state in Sprague-Dawley rat at 2 mg/kg, iv measured upto 24 hrs by LC-MS/MS analysis; conditions: in vivo
# in vivo [42] = conditions: Sprague-Dawley, rat, po, 5 mg/kg; remark: listed apart in the source
# [43] = Metabolic stability in rat liver microsome assessed as half life measured upto 45 mins in presence of NADPH by LC-MS/MS analysis; assay type: ADME; conditions: liver microsomes
smiles,measurement,setting,value
C[C@H]1CC2(CCN(c3ccc(C(=O)N4CCC(CN5Cc6cc7c(cc6C5)C(=O)N(C5CCC(=O)NC5=O)C7=O)CC4)cc3)CC2)CN1c1ccc(C#N)c(Cl)c1 (stereo not given in full),AUC(0-t) at 24 h,in vivo [1],5490 ng·h/mL
same,remaining at 2 h,[2],87%
same,remaining at 2 h,[3],92%
same,remaining at 2 h,[4],71%
same,DC50,[5],0.1 nM
same,Vd,[6],0.23 L/kg
same,AUC(0-t) at 24 h,[7],50500 ng·h/mL
same,half-life at […],[8],> 60 min
same,AUC(0-t) at 24 h,[9],85200 ng·h/mL
same,clearance,[10],3.33 mL/min/kg
same,Activity,[11],Non-Toxic
same,Tmax,[12],3 h
same,half-life,[13],600 min
same,Vd,[14],1.74 L/kg
same,half-life,[15],> 120 min
same,half-life,[16],> 120 min
same,bioavailability at 24 h,in vivo [17],44%
same,pIC50,LNCaP,8.55
same,Tmax,[18],2 h
same,remaining at 2 h,[19],69%
same,DC50,[20],1.1 nM
same,half-life,[21],264 min
same,half-life,[22],> 120 min
same,half-life,[23],> 120 min
same,half-life,[24],1640 min
same,Tmax,[25],4 h
same,AUC(0-t) at 24 h,[26],10300 ng·h/mL
same,half-life at 24 h,[27],336 min
same,inhibition in vivo at 40 mg/kg,VCaP,85%
same,clearance,[28],3.17 mL/min/kg
same,AUC(0-t) at 24 h,[29],5170 ng·h/mL
same,remaining at 2 h,[30],82%
same,half-life,[31],> 120 min
same,half-life,[32],> 120 min
same,Vd,[33],2.07 L/kg
same,AUC(0-t) at 24 h,[34],4860 ng·h/mL
same,half-life,[35],> 120 min
same,Cmax,[36],1520 ng/mL
same,AUC(0-t) at 24 h,[37],15200 ng·h/mL
same,half-life at 24 h,[38],270 min
same,Cmax at 24 h,in vivo [39],871 ng/mL
same,half-life,[40],594 min
same,Vd at 24 h,[41],1.7 L/kg
same,AUC(0-t) at 24 h,in vivo [42],6020 ng·h/mL
same,half-life at […],[43],> 60 min
